For series [1] the following is noted: cited from earlier work.
Series [2] is described as follows: Amount of lipophilic active ingredient that the carrier can hold in solution. Type of series: physicochemical. The conditions noted are these: Example 7.
The conditions of series [3]: reported; cited from earlier work.

The structures appear in SMILES notation. Where two headings read alike, the source gives them in different places.

This is an account of results in patent US20200046836A1, “Terpene Carrier” (priority 2015, published 2020).

As for `C=CC(C)(O)CCC=C(C)C` (stereo not shown) [Linalool], the “LD50 (Lethal Dose)” value in series [1] (in vivo) is 3000 mg/kg.
For `C=C(C)[C@@H]1CCC(C)=C[C@H]1c1c(O)cc(CCCCC)cc1O` [CBD, cannabidiol], the “keeping CBD in solution in the propylene glycol/glycerine mixture” value in series [2] (control carrier) is reported as “difficult to maintain 10% by weight”. Moreover, the “CBD content of solution that could be prepared in the terpene mixture” value in series [2] (terpene mixture) is “at least 30 % by weight”.
With `C=C1CC/C=C(\C)CC[C@@H]2[C@@H]1CC2(C)C` [Beta-caryophyllene], in series [1] (in vivo), the “LD50 (Lethal Dose)” value is greater than 5000 mg/kg.
Regarding `CCCCCc1cc(O)c2c(c1)OC(C)(CCC=C(C)C)C=C2` (stereo not shown) [CBC, cannabichromene], the “effectiveness relative to CBD in the treatment of anxiety and stress” value in series [3] is recorded as “about ten times more effective than CBD”.
Take `CN1CCCC1c1cccnc1` (stereo not shown) [nicotine, reference compound]: in series [1] (nicotine as comparison), the “LD50 (Lethal Dose)” value is 40 to 60 mg/kg.
With `C=CC(=C)CCC=C(C)C` [Myrcene], the “LD50 (Lethal Dose)” value in series [1] (in vivo) was greater than 5000 mg/kg.
